Where two headings read alike, the source gives them in different places.
Experiments:
[1] = system: Pseudomonas sp. methyl parathion hydrolase (MPH); assay: sensing of methyl parathion hydrolase activity with pGESS-EGFP (III); type: cell-based; conditions: 0.1 mM substrate, GFP emission at 510 nm
Description: The cells were lysed, and the supernatant was analyzed with a fluorescence spectrometer (Varian, Australia), thereby examining whether the emission wavelength of GFP was detected at 510 nm.

[2] = system: phenol-sensing artificial genetic circuit pGESS-EGFP(I) (dmpR); conditions: solid medium, 30° C. 36 hours, fluorescence microscope
Description: In order to quantitatively analyze the function of the artificial genetic circuit (constructed in Example 1) to sense phenol, a single colony of recombinant E. coli BL21 containing pGESS-EGFP(I) was inoculated into LB liquid medium containing 50 μg/ml of ampicillin and was cultured with shaking overnight at 37° C.

[3] = system: genetic circuit pGESS-Cm(II)
Description: (§1) Next, the genetic circuits (pGESS-Cm(II), pGESS-Tc(II), and pGESS-Km(II)) comprising the antibiotic resistance gene as the reporter were used to perform quantitative antibiotic resistance analysis. A single colony of E. coli JM109(DE3) containing each genetic circuit comprising chloramphenicol, tetracycline or kanamycin resistance gene as a reporter was inoculated into liquid medium containing 50 μg/ml of ampicillin and was cultured with shaking overnight at 37° C. The pre-culture was 10^6-fold diluted, and 100 μl of the dilution was plated on each of selective media and cultured overnight at 37° C. for 3 days. The number of colonies produced on the solid medium was counted, thereby performing the resistance test. 50 μg/ml of ampicillin and various concentrations (0, 10, 20 and 30 μg/ml) of each of selective antibiotics (chloramphenicol, tetracycline and kanamycin resistance) were added to each selective medium. Also, a transcriptional activator, that is, phenol, was added at a concentration of 1-1000 μM.

[4] = system: genetic circuit pGESS-Tc(II); conditions: phenol 1-1000 μM
Description: as §1

[5] = system: genetic circuit pGESS-Km(II); conditions: phenol 1-1000 μM
Description: as §1

[6] = system: genetic circuit pGESS-EGFP (III), mutant dmpR (E135K); type: cell-based, E. coli
Description: The colony introduced with the pGESS-EGFP (II) or pGESS-EGFP (III) genetic circuit was inoculated into LB medium and was cultured with shaking at 37° C. Next day, the culture was inoculated into LB medium to a concentration of 1% (v/v) and was cultured with shaking at 37° C. When the cell growth (OD600/ml) reached about 2.5, the cultured cells were recovered and subjected to activation of the genetic circuit. For activation of the genetic circuit, the recovered bacterial cells were washed once with M9 medium, after which they were suspended in M9 (acetate) media containing various concentrations of phenol and were cultured with shaking. Each medium was supplemented with 50 μg/ml of ampicillin as a selection marker. The bacterial cell growth was predicted by measuring absorbance (OD600) using a UV/VIS spectrometer (Ultrospec 3000, Pharmacia Biotech, Sweden), and the fluorescence intensity was measured using a fluorescence plate reader (Multi-label reader, PerkinElmer, USA).
Next, the measurement of sensitivities to 2-nitrophenol and 4-nitrophenol was performed. The measurement was performed in the same manner as above, and various concentrations of 2-nitrophenol and 4-nitrophenol in addition to phenol were added and allowed to react.

[7] = system: artificial genetic circuit pGESS-EGFP (I) (dmpR); type: cell-based, E. coli DH5α; conditions: 0.1-1000 μM tested, overnight at 30° C., LB medium
Description: The signals of the artificial genetic circuit for phenolic compounds were quantitatively analyzed. Specifically, a single colony of E. coli DH5α containing pGESS-EGFP (I) was inoculated into LB liquid medium containing 50 μg/ml of ampicillin and was cultured with shaking overnight at 37° C. The culture was inoculated into LB medium containing 50 μg/ml of ampicillin to a concentration of 1% (v/v), and 0.1-1000 μM of each of phenol, o-chlorophenol, m-chlorophenol, o-nitrophenol, catechol and resorcinol was added thereto and cultured with shaking overnight at 30° C. The cells were lysed, and the supernatant was analyzed by a fluorescence spectrometer (Varian, Australia), thereby measuring the fluorescence of GFP at 510 nm.

[8] = system: phenol-sensing artificial genetic circuit pGESS-EGFP(I) (dmpR)
Description: The dependence of sensitivity of the artificial genetic circuit on the concentration of the inducer phenol was confirmed using a fluorescence spectrometer. For this purpose, a single colony of recombinant E. coli containing pGESS-EGFP(I) was inoculated into LB liquid medium supplemented with 50 μg/ml of ampicillin and was cultured with shaking overnight at 37° C. The above pre-culture was inoculated into LB liquid medium containing 50 μg/ml of ampicillin and various concentrations (0.1-1000 μM) of phenol to a concentration of 1% (v/v) and was cultured with shaking at 30° C. for 20 hours. To analyze the intensity of fluorescence, the cells were disrupted, and the intensity of fluorescence in the supernatant was analyzed using a fluorescence spectrometer.

[9] = system: genetic circuit pGESS-EGFP (II)
Description: In the present invention, in order to increase the ability of the genetic circuit to sense phenolic compounds, the reaction of the genetic circuit was performed using the optimal medium and carbon source selected in Example 5, and the cell growth step and the step of activating (analyzing) the genetic circuit were separated from each other, thereby attempting the optimization of the sense system. Specifically, the bacterial cells were made healthy using LB medium during growth, and the cells were recovered and the activity of the genetic circuit therein was analyzed in the M9 medium containing acetate as a carbon source.
Specifically, a colony introduced with the genetic circuit was inoculated into LB medium and was cultured with shaking overnight at 37° C., and next day, the culture was inoculated into LB medium at a concentration of 1% (v/v) and was cultured with shaking at 37° C. When the cell growth (OD600/ml) reached about 2.5, the cultured cells were recovered and subjected to activation of the genetic circuit. For activation of the genetic circuit, the recovered bacterial cells were washed once with M9 medium, after they were suspended in M9 (acetate) media containing various concentrations of phenols and were cultured with shaking at 30° C. for 16 hours. Each medium was supplemented with 50 μg/ml of ampicillin as a selective marker. The intensity of fluorescence in cells induced by each concentration of phenol was measured using FACSAria system (Becton Dickinson, US). As a detector, an FSC, SSC, FL1-H (excitation=488 nm, emission=530/30 nm) detector was set, and data obtained by 50,000 sample cells were analyzed using FACSDiVa (Becton Dickinson, USA) (see FIG. 19 C).

[10] = biological target: T1, C. freundii tyrosine-phenol lyase (TPL) (Citrobacter freundii, UniProt P31013); assay: sensing of tyrosine-phenol lyase activity with pGESS-EGFP (I); type: cell-based; conditions: 1 mM tyrosine, 10 μM PLP, 30° C. 20 hours
T1 construct: expressed in transfected cells; host or cells: E. coli DH5α containing pGESS-EGFP (I), plasmid pEC-TPL
Excerpt: The GESS genetic circuit of the present invention can also be used to sense a reaction (phenol-lyase) of liberating phenol from substrates (Ph-C—(R)) comprising carbon coupled to phenol. In the present invention, whether the GESS genetic circuit senses the activity of TPL (enzyme degrading tyrosine into phenol, pyruvic acid and ammonia) was examined in order to verify the effectiveness of TPL. Specifically, C. freundii TPL gene was cloned into pEC11a (obtained by replacing the on of pET11a(+) with ACYC ori) to prepare pEC-TPL which was then introduced into E. coli DH5α containing pGESS-EGFP (I).

[11] = enzymatic properties of novel alkaline phosphatase (pNPP hydrolysis, absorbance at 405 nm); type: biochemical; conditions: 15 minutes, at 80° C. or below
Description: The optimum pH and temperature, thermal stability and substrate specificity of the selected alkaline phosphatase and the effect thereof on metal ions were examined. An enzymatic reaction was performed in the following manner. The enzymatic reaction was performed using a mixture of 50 mM diethanolamine, DEA (pH 9.0) buffer, 0.5 mM para-nitrophenylphosphate (pNPP) and the enzyme at 37° C. for 5 minutes. The same amount of 1M NaOH was added to stop the enzymatic reaction, and the amount of nitrophenol produced by the enzymatic reaction was measured. the measurement was performed by measuring the absorbance at 405 nm using a fluorescence plate reader (Victor5, Perkin-Elmer, USA). 1 unit was defined as the amount of enzyme that can produce 1 μmol of para-nitrophenol per minute at 37° C.
In order to examine the optimum pH of the novel alkaline phosphatase, the activities thereof at a pH of 7.0 to 10.5 were compared. At a pH of 7.0 to 8.5, 50 mM Tris-HCl buffer was used, and at a pH of 7.5 to 10.5, 50 mM DEA buffer was used.
In addition, the activities of the enzyme at various temperatures were compared. […] (see FIG. 25B). In addition, in order to examine the thermal inactivation of the enzyme, the enzyme was allowed to stand at various temperatures for 15 minutes, and then the remaining enzymatic activity was measured. […]

T1 sequence (P31013 whole entry): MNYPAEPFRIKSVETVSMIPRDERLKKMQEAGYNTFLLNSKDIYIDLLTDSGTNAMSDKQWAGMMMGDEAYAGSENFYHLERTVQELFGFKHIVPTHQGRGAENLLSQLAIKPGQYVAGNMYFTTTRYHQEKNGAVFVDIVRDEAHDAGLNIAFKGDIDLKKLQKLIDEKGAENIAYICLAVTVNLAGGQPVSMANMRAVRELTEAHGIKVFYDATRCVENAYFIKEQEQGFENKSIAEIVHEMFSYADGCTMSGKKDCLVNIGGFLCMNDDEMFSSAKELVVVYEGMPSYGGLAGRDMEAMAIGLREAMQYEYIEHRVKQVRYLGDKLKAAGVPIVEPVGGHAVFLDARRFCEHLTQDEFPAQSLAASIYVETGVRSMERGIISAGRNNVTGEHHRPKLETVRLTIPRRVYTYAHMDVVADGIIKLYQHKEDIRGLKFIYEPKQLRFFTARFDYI

Compound: COP(=S)(OC)Oc1ccc([N+](=O)[O-])cc1 [methyl parathion]
- fluorescence in the presence of MPH [1]: strong fluorescence was observed

Compound: Oc1ccccc1 [phenol]
- phenol concentration at which colony fluorescence was observed [2]: more than 1 μM
- resistance to chloramphenicol ([3]; phenol concentration 100 μM): 40 µg/mL
- resistance to chloramphenicol ([3]; phenol concentration 1 mM): 50 µg/mL
- resistance to chloramphenicol ([3]; phenol concentration of 10 μM): ≤ 20 µg/mL
- phenol-dependent tetracycline resistance (colony formation) [4]: quantitative results similar to those in the case of chloramphenicol
- phenol-dependent kanamycin resistance (colony formation) [5]: the formation of colonies was not sensed
- sensitivity relative to wild dmpR ([6]; mutant dmpR vs wild dmpR (pGESS-EGFP (II))): about 10 times
- relative sensitivity among phenol, 4-nitrophenol and 2-nitrophenol ([6]; pGESS-EGFP (III)): highest
- concentration range which could be quantitatively sensed ([6]; pGESS-EGFP (III), mutant dmpR, M9 (acetate)): 0.1 to 10 µM
- concentration from which fluorescence started to be sensed [7]: 1 µM
- phenol concentration at which a clear fluorescent signal was observed ([8]; LB liquid medium, 30° C. 20 hours, fluorescence spectrometer): ≥ 10 µM
- phenol concentration range in which the genetic circuit is quantitatively activated ([8]; pGESS-EGFP(I)): 1 to 1000 µM
- increase of reaction value ([9]; 2-step activity analysis): about 5 times
- sensitivity relative to the previous sensitivity ([9]; 2-step activity analysis): about 10 times
- concentration range of phenol which could be quantitatively analyzed ([9]; 2-step activity analysis, M9 (acetate)): 1 to 10 µM
- phenol concentration that could be sensed by 2-step activity analysis ([9]; M9 (acetate), 30° C. 16 hours): at least 1 μM

Compound: N[C@@H](Cc1ccc(O)cc1)C(=O)O [tyrosine]
- intensity of fluorescence in the cell lysis due to TPL activity [10]: significantly increased

Compound: alkaline phosphatase (BAP) from E. coli: alkaline phosphatase (BAP) from E. coli
- thermal inactivation [11]: not inactivated

Reference: US9783859B2, “Method of screening and quantifying various enzymatic activities using artificial genetic circuits” (KOREA RESEARCH INSTITUTE OF BIOSCIENCE AND BIOTECHNOLOGY, priority 2009, dated 2017)
